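Five compound concentrations were applied to cells in 96-well plates for 48 hours; endpoints were derived by simple linear interpolation of the resulting dose-response curve. The concentration for 50% growth inhibition is given as GI50.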 Activity calls are given as the source filed them. No stated cut-off is given here; in the data, active = GI50 up to about 1.1 µM and inactive = higher.
Assays:
Assay in all cases: DTP human tumour cell line panel, 48 h
786-0 = tested on: 786-0
A498 = tested on: A498
A549 = tested on: A549
ACHN = tested on: ACHN
BT-549 = tested on: BT-549
CAKI-1 = tested on: CAKI-1
CCRF-CEM = tested on: CCRF-CEM
COLO 205 = tested on: COLO 205
DU-145 = tested on: DU-145
EKVX = tested on: EKVX
HCC 2998 = tested on: HCC 2998
HCT-116 = tested on: HCT-116
HCT-15 = tested on: HCT-15
HOP-62 = tested on: HOP-62
HOP-92 = tested on: HOP-92
HT-29 = tested on: HT-29
Hs-578T = tested on: Hs-578T
IGROV-1 = tested on: IGROV-1
K562 = tested on: K562
KM12 = tested on: KM12
LOX IMVI = tested on: LOX IMVI
M14 = tested on: M14
MCF7 = tested on: MCF7
MDA-MB-231 = tested on: MDA-MB-231
MDA-MB-435 = tested on: MDA-MB-435
MDA-N = tested on: MDA-N
MOLT-4 = tested on: MOLT-4
Malme-3M = tested on: Malme-3M
NCI-H226 = tested on: NCI-H226
NCI-H23 = tested on: NCI-H23
NCI-H460 = tested on: NCI-H460
NCI-H522 = tested on: NCI-H522
NCI/ADR-RES = tested on: NCI/ADR-RES
OVCAR-3 = tested on: OVCAR-3
OVCAR-4 = tested on: OVCAR-4
OVCAR-5 = tested on: OVCAR-5
OVCAR-8 = tested on: OVCAR-8
PC-3 = tested on: PC-3
RPMI-8226 = tested on: RPMI-8226
RXF 393 = tested on: RXF 393
SF-268 = tested on: SF-268
SF-295 = tested on: SF-295
SF-539 = tested on: SF-539
SK-MEL-28 = tested on: SK-MEL-28
SK-MEL-2 = tested on: SK-MEL-2
SK-MEL-5 = tested on: SK-MEL-5
SK-OV-3 = tested on: SK-OV-3
SN12C = tested on: SN12C
SNB-19 = tested on: SNB-19
SNB-75 = tested on: SNB-75
SR = tested on: SR
SW-620 = tested on: SW-620
T47D = tested on: T47D
TK-10 = tested on: TK-10
U-251 = tested on: U-251
UACC-257 = tested on: UACC-257
UACC-62 = tested on: UACC-62
UO-31 = tested on: UO-31
HL-60 = tested on: HL-60

Structure (SMILES): COc1cc2c(cc1O)C(c1cc(O)c(O)c(OC)c1)C(O)(C(=O)O)C(CO)C2O (configuration not stated)
- GI50 (786-0): 16.1 µM (inactive)
- GI50 (A498): > 100 µM (inactive)
- GI50 (A549): > 100 µM (inactive)
- GI50 (ACHN): > 100 µM (inactive)
- GI50 (BT-549): > 100 µM (inactive)
- GI50 (CAKI-1): > 100 µM (inactive)
- GI50 (CCRF-CEM): 2.62 µM (inactive)
- GI50 (COLO 205): > 100 µM (inactive)
- GI50 (DU-145): > 100 µM (inactive)
- GI50 (EKVX): 20.7 µM (inactive)
- GI50 (HCC 2998): > 100 µM (inactive)
- GI50 (HCT-116): 18.3 µM (inactive)
- GI50 (HCT-15): > 100 µM
- GI50 (HOP-62): > 100 µM (inactive)
- GI50 (HOP-92): > 100 µM (inactive)
- GI50 (HT-29): > 100 µM (inactive)
- GI50 (Hs-578T): > 100 µM (inactive)
- GI50 (IGROV-1): > 100 µM (inactive)
- GI50 (K562): 47 µM (inactive)
- GI50 (KM12): > 100 µM (inactive)
- GI50 (LOX IMVI): 17.9 µM (inactive)
- GI50 (M14): > 100 µM (inactive)
- GI50 (MCF7): 20.9 µM (inactive)
- GI50 (MDA-MB-231): 40.8 µM (inactive)
- GI50 (MDA-MB-435): 17.6 µM (inactive)
- GI50 (MDA-N): 16.6 µM (inactive)
- GI50 (MOLT-4): 20.3 µM (inactive)
- GI50 (Malme-3M): > 100 µM (inactive)
- GI50 (NCI-H226): > 100 µM (inactive)
- GI50 (NCI-H23): > 100 µM (inactive)
- GI50 (NCI-H460): > 100 µM (inactive)
- GI50 (NCI-H522): > 100 µM (inactive)
- GI50 (NCI/ADR-RES): > 100 µM (inactive)
- GI50 (OVCAR-3): > 100 µM (inactive)
- GI50 (OVCAR-4): > 100 µM (inactive)
- GI50 (OVCAR-5): > 100 µM (inactive)
- GI50 (OVCAR-8): > 100 µM (inactive)
- GI50 (PC-3): > 100 µM (inactive)
- GI50 (RPMI-8226): > 100 µM (inactive)
- GI50 (RXF 393): > 100 µM (inactive)
- GI50 (SF-268): > 100 µM (inactive)
- GI50 (SF-295): > 100 µM (inactive)
- GI50 (SF-539): > 100 µM (inactive)
- GI50 (SK-MEL-28): > 100 µM (inactive)
- GI50 (SK-MEL-2): > 100 µM (inactive)
- GI50 (SK-MEL-5): > 100 µM (inactive)
- GI50 (SK-OV-3): > 100 µM (inactive)
- GI50 (SN12C): 16.4 µM (inactive)
- GI50 (SNB-19): > 100 µM (inactive)
- GI50 (SNB-75): > 100 µM (inactive)
- GI50 (SR): 66.4 µM (inactive)
- GI50 (SW-620): 26 µM (inactive)
- GI50 (T47D): > 100 µM (inactive)
- GI50 (TK-10): > 100 µM (inactive)
- GI50 (U-251): > 100 µM (inactive)
- GI50 (UACC-257): > 100 µM (inactive)
- GI50 (UACC-62): > 100 µM (inactive)
- GI50 (UO-31): > 100 µM (inactive)

Structure (SMILES): CCN(CC)CCCC(C)Nc1cc(/C=C/c2ccc(Cl)cc2)nc2cc(N(C)C)ccc12 (configuration not stated)
- GI50 (786-0): 2.92 µM (inactive)
- GI50 (A498): 1.69 µM (inactive)
- GI50 (A549): 2.25 µM (inactive)
- GI50 (ACHN): 2.11 µM (inactive)
- GI50 (BT-549): 1.65 µM (inactive)
- GI50 (CCRF-CEM): 1.21 µM (inactive)
- GI50 (DU-145): 1.66 µM (inactive)
- GI50 (EKVX): 1.73 µM (inactive)
- GI50 (HCC 2998): 2.07 µM (inactive)
- GI50 (HCT-116): 1.24 µM (inactive)
- GI50 (HCT-15): 1.67 µM
- GI50 (HL-60): 1.72 µM (inactive)
- GI50 (HOP-62): 1.89 µM (inactive)
- GI50 (HOP-92): 1.74 µM (inactive)
- GI50 (HT-29): 1.34 µM (inactive)
- GI50 (Hs-578T): 2.37 µM (inactive)
- GI50 (IGROV-1): 2 µM (inactive)
- GI50 (K562): 0.272 µM (active)
- GI50 (KM12): 1.7 µM (inactive)
- GI50 (M14): 1.61 µM (inactive)
- GI50 (MCF7): 1.34 µM (inactive)
- GI50 (MDA-MB-231): 1.22 µM (inactive)
- GI50 (MDA-MB-435): 1.67 µM (inactive)
- GI50 (MDA-N): 1.47 µM (inactive)
- GI50 (MOLT-4): 1.19 µM (inactive)
- GI50 (NCI-H226): 3.71 µM (inactive)
- GI50 (NCI-H23): 1.76 µM (inactive)
- GI50 (NCI-H460): 1.67 µM (inactive)
- GI50 (NCI/ADR-RES): 2.19 µM (inactive)
- GI50 (OVCAR-3): 1.7 µM (inactive)
- GI50 (OVCAR-5): 1.94 µM (inactive)
- GI50 (OVCAR-8): 1.86 µM (inactive)
- GI50 (PC-3): 1.41 µM (inactive)
- GI50 (RXF 393): 1.61 µM (inactive)
- GI50 (SF-268): 1.83 µM (inactive)
- GI50 (SF-295): 1.9 µM (inactive)
- GI50 (SF-539): 2.15 µM (inactive)
- GI50 (SK-MEL-28): 1.74 µM (inactive)
- GI50 (SK-MEL-5): 2.01 µM (inactive)
- GI50 (SN12C): 1.8 µM (inactive)
- GI50 (SNB-19): 1.82 µM (inactive)
- GI50 (SR): 1.25 µM (inactive)
- GI50 (SW-620): 1.33 µM (inactive)
- GI50 (T47D): 1.66 µM (inactive)
- GI50 (TK-10): 1.91 µM (inactive)
- GI50 (U-251): 1.64 µM (inactive)
- GI50 (UACC-62): 2.52 µM (inactive)
- GI50 (UO-31): 2.04 µM (inactive)

Structure (SMILES): Cn1cc(-c2ccc(CCOC3CCCCO3)cc2)c2c(C#N)cccc21 (configuration not stated)
- GI50 (786-0): 92.3 µM (inactive)
- GI50 (A498): 61.2 µM (inactive)
- GI50 (A549): 31 µM (inactive)
- GI50 (BT-549): 98.6 µM (inactive)
- GI50 (CAKI-1): > 100 µM (inactive)
- GI50 (CCRF-CEM): 24.4 µM (inactive)
- GI50 (COLO 205): 27 µM (inactive)
- GI50 (DU-145): > 100 µM (inactive)
- GI50 (EKVX): 35.6 µM (inactive)
- GI50 (HCC 2998): 35.7 µM (inactive)
- GI50 (HCT-116): 43.3 µM (inactive)
- GI50 (HCT-15): 16.6 µM
- GI50 (HL-60): 19.9 µM (inactive)
- GI50 (HOP-62): > 100 µM (inactive)
- GI50 (HOP-92): > 100 µM (inactive)
- GI50 (HT-29): 17 µM (inactive)
- GI50 (Hs-578T): > 100 µM (inactive)
- GI50 (IGROV-1): > 100 µM (inactive)
- GI50 (K562): 22.9 µM (inactive)
- GI50 (KM12): 61.7 µM (inactive)
- GI50 (LOX IMVI): 41.9 µM (inactive)
- GI50 (M14): 37.8 µM (inactive)
- GI50 (MCF7): 38.3 µM (inactive)
- GI50 (MDA-MB-231): 86.1 µM (inactive)
- GI50 (MDA-MB-435): 36.9 µM (inactive)
- GI50 (MDA-N): 48 µM (inactive)
- GI50 (MOLT-4): 16.1 µM (inactive)
- GI50 (Malme-3M): 83 µM (inactive)
- GI50 (NCI-H23): 48.3 µM (inactive)
- GI50 (NCI-H460): 42.6 µM (inactive)
- GI50 (NCI-H522): > 100 µM (inactive)
- GI50 (NCI/ADR-RES): 30.9 µM (inactive)
- GI50 (OVCAR-3): 67.8 µM (inactive)
- GI50 (OVCAR-4): 31.8 µM (inactive)
- GI50 (OVCAR-5): > 100 µM (inactive)
- GI50 (OVCAR-8): > 100 µM (inactive)
- GI50 (PC-3): 27.2 µM (inactive)
- GI50 (RPMI-8226): 41.9 µM (inactive)
- GI50 (RXF 393): 45.3 µM (inactive)
- GI50 (SF-268): > 100 µM (inactive)
- GI50 (SF-295): 34.7 µM (inactive)
- GI50 (SF-539): 55 µM (inactive)
- GI50 (SK-MEL-28): 14.9 µM (inactive)
- GI50 (SK-MEL-2): 28.7 µM (inactive)
- GI50 (SK-MEL-5): > 100 µM (inactive)
- GI50 (SK-OV-3): > 100 µM (inactive)
- GI50 (SN12C): > 100 µM (inactive)
- GI50 (SNB-19): > 100 µM (inactive)
- GI50 (SR): 17.2 µM (inactive)
- GI50 (SW-620): 28.5 µM (inactive)
- GI50 (T47D): 21.3 µM (inactive)
- GI50 (TK-10): 48.3 µM (inactive)
- GI50 (U-251): 28.6 µM (inactive)
- GI50 (UACC-257): 24.7 µM (inactive)
- GI50 (UACC-62): 44.6 µM (inactive)
- GI50 (UO-31): 28 µM (inactive)

Reference: ChEMBL document CHEMBL1201862, “PubChem BioAssay data set” (2004)
